Measurements taken from patent US6479435B1, “Diaryl ethers and processes for their preparation and herbicidal and desiccant compositions containing them” (ISK Americas Incorporated, priority 1997, dated 2002).

Experiments:
Format in all cases: in vivo
[1] = system: field corn (Zea mays L., var. Dekalb 535, CORN); test: Post-emerge greenhouse test, crop damage rating; conditions: 14 days after application
Text: (§1) A standard greenhouse herbicide activity screening system was used to evaluate the herbicidal efficacy and crop safety of these test compounds. Six broadleaf weed species including redroot pigweed (Amaranthus retroflexus, AMARE), velvetleaf (Abutilon theophrasti, ABUTH), sicklepod (Cassia obtusifolia, CASOB), ivyleaf morningglory (Ipomoea hederacea, IPOHE), lambsquarters (Chenopodium album, CHEAL) and common ragweed (Ambrosia artemisiifolia L., AMBEL) were used as test species. Four grass weed species including green foxtail (Setaria viridis, SETVI), barnyardgrass (Echinochloa crusgalli, ECHCG), Johnsongrass (Sorghum halepense, SORHA), and large crabgrass (Digitaria sanguinalis, DIGSA) were also used. In addition, three crop species, field corn (Zea mays L., var. Dekalb 535, CORN), soybean (Glycine max L., var. Pella 86, SOY), and upland rice (Oryza sp., var.Tebonnet, RICE) were included.
(§2) All test compounds were dissolved in acetone and applied to the test units in a volume of 187 l/ha. Test materials were applied at rates ranging from 125 g ai/ha to 1000 g ai/ha using a track sprayer equipped with a TJ8001E even flow flat fan spray nozzle. Plants were arranged on a shelf so that the top of the canopy (post-emerge) or top of the soil surface (pre-emerge) was 40-45 cm below the nozzle. Pressurized air was used to force the test solution through the nozzle as it was mechanically advanced (via electrically driven chain drive) over the top of all test plants/pots. This application simulates a typical commercial field herbicide application.
(§3) In the post-emerge test, a commercial non-ionic surfactant was also included (0.25% v/v) to enhance wetting of the leaf surfaces Qf target plants at rates ranging from 63 g ai/ha to 1000 g ai/ha. For post-emerge tests, seeds were planted 8-21 days prior to the test to allow emergence and good foliage development prior to application of the test substances. At the time of the post-emerge application, plants of all species were usually at the 2-3 leaf stage of development. Post-emerge test units were always bottom-watered.
(§4) At 14 days after application of the test materials, phytotoxicity ratings were recorded. A rating scale of 0-100 was used as previously described in Research Methods in Weed Science, 2nd edition, B. Truelove, Ed., Southern Weed Science Society, Auburn University, Auburn, Ala., 1977. Briefly, “0” corresponds to no damage and “100” corresponds to complete death of all plants in the test unit. This scale was used both to determine efficacy against weed species and damage to crop species. Herbicide activity data for various compounds of this invention, which are shown by compound number in Tables 1-9, are shown in Tables 13 and 14.

[2] = system: upland rice (Oryza sp., var.Tebonnet, RICE); test: Post-emerge greenhouse test, crop damage rating; conditions: 14 days after application
Text: as §1, §2, §3, §4

[3] = system: lambsquarters (Chenopodium album, CHEAL); test: Post-emerge greenhouse herbicide test, phytotoxicity rating; conditions: 14 days after application
Text: as §1, §2, §3, §4

[4] = system: green foxtail (Setaria viridis, SETVI); test: as above; conditions: 14 days after application
Text: as §1, §2, §3, §4

[5] = system: ivyleaf morningglory (Ipomoea hederacea, IPOHE); test: as above; conditions: 14 days after application
Text: as §1, §2, §3, §4

[6] = system: redroot pigweed (Amaranthus retroflexus, AMARE); test: as above; conditions: 14 days after application
Text: as §1, §2, §3, §4

[7] = system: sicklepod (Cassia obtusifolia, CASOB); test: as above; conditions: 14 days after application
Text: as §1, §2, §3, §4

[8] = system: velvetleaf (Abutilon theophrasti, ABUTH); test: as above; conditions: 14 days after application
Text: as §1, §2, §3, §4

[9] = system: Johnsongrass (Sorghum halepense, SORHA); test: as above; conditions: 14 days after application
Text: as §1, §2, §3, §4

[10] = system: large crabgrass (Digitaria sanguinalis, DIGSA); test: as above; conditions: 14 days after application
Text: as §1, §2, §3, §4

[11] = system: barnyardgrass (Echinochloa crusgalli, ECHCG); test: as above; conditions: 14 days after application
Text: as §1, §2, §3, §4

[12] = system: field corn (Zea mays L., var. Dekalb 535, CORN); test: Pre-emerge greenhouse test, crop damage rating; conditions: 14 days after application, rating scale 0-100
Text: as §1
(§5) All plants were grown in 10 cm square plastic pots which were filled with a sandy loam soil mix. For preemerge tests, seeds were planted one day prior to application of the test compounds. Immediately after application, test units of the pre-emerge applications were watered at the soil surface to incorporate the test materials. Subsequently, these test units were bottom-watered.
as §2, §4

[13] = system: upland rice (Oryza sp., var.Tebonnet, RICE); test: Pre-emerge greenhouse test, crop damage rating; conditions: 14 days after application, rating scale 0-100
Text: as §1, §5, §2, §4

[14] = system: soybean (Glycine max L., var. Pella 86, SOY); test: Pre-emerge greenhouse test, crop damage rating; conditions: 14 days after application, rating scale 0-100
Text: as §1, §5, §2, §4

[15] = system: soybean (Glycine max L., var. Pella 86, SOY); test: Post-emerge greenhouse test, crop damage rating; conditions: 14 days after application
Text: as §1, §2, §3, §4

[16] = system: lambsquarters (Chenopodium album, CHEAL); test: Pre-emerge greenhouse herbicide test, phytotoxicity rating; conditions: 14 days after application, rating scale 0-100
Text: as §1, §5, §2, §4

[17] = system: green foxtail (Setaria viridis, SETVI); test: as above; conditions: 14 days after application, rating scale 0-100
Text: as §1, §5, §2, §4

[18] = system: ivyleaf morningglory (Ipomoea hederacea, IPOHE); test: as above; conditions: 14 days after application, rating scale 0-100
Text: as §1, §5, §2, §4

[19] = system: redroot pigweed (Amaranthus retroflexus, AMARE); test: as above; conditions: 14 days after application, rating scale 0-100
Text: as §1, §5, §2, §4

[20] = system: sicklepod (Cassia obtusifolia, CASOB); test: as above; conditions: 14 days after application, rating scale 0-100
Text: as §1, §5, §2, §4

[21] = system: velvetleaf (Abutilon theophrasti, ABUTH); test: as above; conditions: 14 days after application, rating scale 0-100
Text: as §1, §5, §2, §4

[22] = system: Johnsongrass (Sorghum halepense, SORHA); test: as above; conditions: 14 days after application, rating scale 0-100
Text: as §1, §5, §2, §4

[23] = system: large crabgrass (Digitaria sanguinalis, DIGSA); test: as above; conditions: 14 days after application, rating scale 0-100
Text: as §1, §5, §2, §4

[24] = system: barnyardgrass (Echinochloa crusgalli, ECHCG); test: as above; conditions: 14 days after application, rating scale 0-100
Text: as §1, §5, §2, §4

## CS(=O)(=O)Nc1ccc(Oc2cc(-n3c(=O)cc4n(c3=O)CCC4)c(F)cc2Cl)cc1 [Compound 5-5]
[1]; 500 g al/ha
  CORN crop damage rating (0-100): 0
[2]; 500 g al/ha
  RICE crop damage rating (0-100): 0
[3]; 500 g al/ha
  CHEAL phytotoxicity rating (0-100): 0
[4]; 500 g al/ha
  SETVI phytotoxicity rating (0-100): 0
[5]; 500 g al/ha
  IPOHE phytotoxicity rating (0-100): 0
[6]; 500 g al/ha
  AMARE phytotoxicity rating (0-100): 0
[7]; 500 g al/ha
  CASOB phytotoxicity rating (0-100): 0
[8]; 500 g al/ha
  ABUTH phytotoxicity rating (0-100): 0
[9]; 500 g al/ha
  SORHA phytotoxicity rating (0-100): 0
[10]; 500 g al/ha
  DIGSA phytotoxicity rating (0-100): 0
[11]; 500 g al/ha
  ECHCG phytotoxicity rating (0-100): 0
[12]; 500 g ai/ha
  crop damage rating CORN: 0
[13]; 500 g ai/ha
  crop damage rating RICE: 0
[14]; 500 g ai/ha
  crop damage rating SOY: 10
[15]; 500 g al/ha
  SOY crop damage rating (0-100): 0
[16]; 500 g ai/ha
  phytotoxicity rating CHEAL: 100
[17]; 500 g ai/ha
  phytotoxicity rating SETVI: 0
[18]; 500 g ai/ha
  phytotoxicity rating IPOHE: 0
[19]; 500 g ai/ha
  phytotoxicity rating AMARE: 95
[20]; 500 g ai/ha
  phytotoxicity rating CASOB: 0
[21]; 500 g ai/ha
  phytotoxicity rating ABUTH: 50
[22]; 500 g ai/ha
  phytotoxicity rating SORHA: 0
[23]; 500 g ai/ha
  phytotoxicity rating DIGSA: 0
[24]; 500 g ai/ha
  phytotoxicity rating ECHCG: 0

## O=c1cc2n(c(=O)n1-c1cc(Oc3ncccc3C(F)(F)F)c(Cl)cc1F)CCC2 [Compound 5-10, 2-[4-chloro-2-fluoro-5-(3-trifluoromethyl-2-pyridyloxy)phenyl]-6,7-dihydropyrrolo[1,2-c]pyrimidine-1,3(2H,5H)dione]
[3]; 1000 g al/ha
  CHEAL phytotoxicity rating (0-100): 80
[4]; 1000 g al/ha
  SETVI phytotoxicity rating (0-100): 20
[5]; 1000 g al/ha
  IPOHE phytotoxicity rating (0-100): 70
[6]; 1000 g al/ha
  AMARE phytotoxicity rating (0-100): 80
[7]; 1000 g al/ha
  CASOB phytotoxicity rating (0-100): 30
[8]; 1000 g al/ha
  ABUTH phytotoxicity rating (0-100): 100
[9]; 1000 g al/ha
  SORHA phytotoxicity rating (0-100): 70
[10]; 1000 g al/ha
  DIGSA phytotoxicity rating (0-100): 10
[11]; 1000 g al/ha
  ECHCG phytotoxicity rating (0-100): 80
[16]; 1000 g ai/ha
  phytotoxicity rating CHEAL: 100
[17]; 1000 g ai/ha
  phytotoxicity rating SETVI: 100
[18]; 1000 g ai/ha
  phytotoxicity rating IPOHE: 100
[19]; 1000 g ai/ha
  phytotoxicity rating AMARE: 100
[20]; 1000 g ai/ha
  phytotoxicity rating CASOB: 0
[21]; 1000 g ai/ha
  phytotoxicity rating ABUTH: 100
[22]; 1000 g ai/ha
  phytotoxicity rating SORHA: 100
[23]; 1000 g ai/ha
  phytotoxicity rating DIGSA: 100
[24]; 1000 g ai/ha
  phytotoxicity rating ECHCG: 100

## N#Cc1ccc(Oc2cc(-n3c(=O)cc4n(c3=O)CCC4)c(F)cc2Cl)nc1 [Compound 5-11]
[1]; 1000 g al/ha
  CORN crop damage rating (0-100): 15
[2]; 1000 g al/ha
  RICE crop damage rating (0-100): 25
[3]; 1000 g al/ha
  CHEAL phytotoxicity rating (0-100): 90
[4]; 1000 g al/ha
  SETVI phytotoxicity rating (0-100): 10
[5]; 1000 g al/ha
  IPOHE phytotoxicity rating (0-100): 90
[6]; 1000 g al/ha
  AMARE phytotoxicity rating (0-100): 70
[7]; 1000 g al/ha
  CASOB phytotoxicity rating (0-100): 10
[8]; 1000 g al/ha
  ABUTH phytotoxicity rating (0-100): 100
[9]; 1000 g al/ha
  SORHA phytotoxicity rating (0-100): 20
[10]; 1000 g al/ha
  DIGSA phytotoxicity rating (0-100): 0
[11]; 1000 g al/ha
  ECHCG phytotoxicity rating (0-100): 20
[12]; 1000 g ai/ha
  crop damage rating CORN: 30
[13]; 1000 g ai/ha
  crop damage rating RICE: 80
[14]; 1000 g ai/ha
  crop damage rating SOY: 60
[15]; 1000 g al/ha
  SOY crop damage rating (0-100): 40
[16]; 1000 g ai/ha
  phytotoxicity rating CHEAL: 100
[17]; 1000 g ai/ha
  phytotoxicity rating SETVI: 95
[18]; 1000 g ai/ha
  phytotoxicity rating IPOHE: 80
[19]; 1000 g ai/ha
  phytotoxicity rating AMARE: 80
[20]; 1000 g ai/ha
  phytotoxicity rating CASOB: 30
[22]; 1000 g ai/ha
  phytotoxicity rating SORHA: 99
[23]; 1000 g ai/ha
  phytotoxicity rating DIGSA: 90
[24]; 1000 g ai/ha
  phytotoxicity rating ECHCG: 95
